The record followed here is PMC5387044, “Analogs of the Frog-skin Antimicrobial Peptide Temporin 1Tb Exhibit a Wider Spectrum of Activity and a Stronger Antibiofilm Potential as Compared to the Parental Peptide” (Frontiers in Chemistry, 2017).

Assay [1] relates to S. aureus ATCC 33591. In kind it is cell-based, Staphylococcus aureus. As to conditions: pH 7.4.
In assay [2] the test system is S. aureus ATCC 33591 biofilm formation. In kind it is cell-based, Staphylococcus aureus.
The subject of assay [3] is K. pneumoniae ATCC BAA-1706. As to conditions: ATCC BAA-1706, 24 h, pH 7.4.
Assay [4] deals with P. aeruginosa ATCC 27853 biofilm formation.
Assay [5] has as its system preformed biofilms of P. aeruginosa ATCC 27853. The assay is described as follows: Biofilm treatment assay on preformed (24-h old) biofilms, CFU counting, alone and with EDTA. In kind it is cell-based, Pseudomonas aeruginosa. As to conditions: 30 μM peptide + 2.5 mM EDTA.
For assay [6], the system named is S. aureus ATCC 33591. As to conditions: for MIC: ATCC 33591, 24 h.
Assay [7] concerns human peripheral blood mononuclear cells (PBMCs). As to conditions: 24 h.
The subject of assay [8] is preformed biofilms of S. aureus ATCC 33591. The assay is described as follows: Biofilm treatment assay on preformed (24-h old) biofilms, CFU counting, alone and with EDTA. Type of assay: cell-based, Staphylococcus aureus. As to conditions: 30 μM peptide alone. The method, then:
The activity of TB, TB_L1FK, and TB_KKG6A against preformed (24-h old) biofilms of S. aureus and P. aeruginosa was also investigated. Briefly, biofilms were allowed to form for 24 h in flat-bottom 96-well microplates in the absence of antimicrobial compounds. Established biofilms were then washed three times with PBS in order to remove non-adherent cells and incubated in fresh BPM with different concentrations of the three peptides (from 15 to 120 μM). After 24 h of incubation, the viability of biofilm-associated cells was evaluated by CFU counting. For this purpose, biofilms were washed three times with PBS and bacterial cells were detached from the surface of the wells with a pipette tip, vigorously vortexed and plated in serial dilutions on TSA.
TB_L1FK and TB_KKG6A were combined with EDTA in order to enhance their activity against preformed biofilms of S. aureus and P. aeruginosa. […] Following incubation, the antibiofilm effect was evaluated in terms of number of biofilm-associated viable cells as previously described.
Figure 4 Activity of TB_L1FK and TB_KKG6A, used alone and in combination with EDTA, against preformed (24-h old) biofilms of S. aureus ATCC 33591 (A,B) and P. aeruginosa ATCC 27853 (C,D). The antibiofilm activity of the peptides, EDTA and the peptide-EDTA combinations was evaluated by CFU counting after 24 h of incubation. […]

Assay [9] deals with P. aeruginosa ATCC 27853. Type of assay: cell-based, Pseudomonas aeruginosa. As to conditions: pH 7.4.
Assay [10] deals with S. epidermidis ATCC 35984. As to conditions: ATCC 35984, 24 h, pH 7.4.
Assay [11] deals with P. aeruginosa ATCC 27853. As to conditions: for FIC index / MIC: ATCC 27853, 24 h.
Assay [12] concerns P. aeruginosa ATCC 27853. As to conditions: ATCC 27853, 24 h, pH 7.4.
The subject of assay [13] is S. aureus ATCC 33591. As to conditions: ATCC 33591, 24 h, pH 7.4.
For assay [14], the system named is human non-small-cell lung adenocarcinoma A549 cells. As to conditions: 24 h.

pIC50: −log10 of the molar value. Marks after values point to notes of the source that are not given here. No end group written: not given here.

The MBC is the lowest tested concentration that kills the bacteria rather than only halting them. The term MIC denotes the smallest concentration in the dilution series that meets the test's criterion for growth inhibition. A high value points to a need for much substance. In general, pIC50 refers to −log10 of the IC50, conventionally taken in molar units. On to FLPIVGLLKSLLK-NH2 [TB_L1FK], for which the “Time to bactericidal effect (reduction of at least 3 Log10 in viable bacteria)” value with S. aureus ATCC 33591 [1] is at most 30 min. In addition, the “Reduction of biofilm formation vs untreated control” value in [2] was “more than 50%”. In addition, the MBC in assay [3] was 6 µM; in [10], 1.5 µM; in the assay with P. aeruginosa ATCC 27853 [12] it was 6 µM; against S. aureus ATCC 33591 [13], 6 µM. Moreover, the “Inhibitory activity on forming biofilms” value in assay [4] is “no inhibitory activity”. Moreover, in assay [5], the “Reduction in CFU number of peptide-EDTA combination compared to the peptide used alone” value is reported as “approximately 1 Log10”. Besides, the results for the FIC index with S. aureus ATCC 33591 [6] and with P. aeruginosa ATCC 27853 [11] were above 0.5 and 0.25 (15 μM)^b, respectively. Further, the MIC with S. aureus ATCC 33591 [6] worked out at 15 µM; against P. aeruginosa ATCC 27853 [11] it was 120 µM. Also, the pIC50 in [7] was 4.28; in assay [14], 4.23. The “Decrease in the number of biofilm-associated viable cells vs untreated biofilms” value in assay [8] is given as “approximately 2 Log10”. Also, in the assay with P. aeruginosa ATCC 27853 [9], the “Time to complete eradication of the starting bacterial inoculum” value is at most 5 min. The “Concentration of the peptide resulting in a synergistic effect” value in the assay on P. aeruginosa ATCC 27853 [11] is 0.25 (15 μM)^b.
Take KKLLPIVANLLKSLL-NH2 [TB_KKG6A]: in the assay with S. aureus ATCC 33591 [1], the “Time to bactericidal effect (reduction of at least 3 Log10 in viable bacteria)” value is on record as at most 60 min. Also, the “Reduction of biofilm formation vs untreated control” value in assay [2] is reported as “more than 50%”. For the same substance, the minimal bactericidal concentration (MBC) in [3] came to 3 µM; in assay [10], 1.5 µM; against P. aeruginosa ATCC 27853 [12], 3 µM; with S. aureus ATCC 33591 [13] it was 1.5 µM. For the same substance, in assay [4] (ATCC 27853, 24 h, 24 μM), the “Inhibition of biofilm biomass” value came to 80%. In addition, the “Reduction in CFU number of peptide-EDTA combination compared to the peptide used alone” value in assay [5] is “approximately 1 Log10”. Moreover, the results for the FIC index with S. aureus ATCC 33591 [6] and in the assay on P. aeruginosa ATCC 27853 [11] were above 0.5 and 0.25 (3.75 μM), respectively. Also, the MIC in the assay on S. aureus ATCC 33591 [6] amounted to 7.5 µM; against P. aeruginosa ATCC 27853 [11], 30 µM. In addition, the pIC50 is 4.31 in assay [7] and 4.80 in assay [14]. Moreover, the “Decrease in the number of biofilm-associated viable cells vs untreated biofilms” value in assay [8] was “approximately 2 Log10”. Also, the “Time to bactericidal effect” value in the assay with P. aeruginosa ATCC 27853 [9] turned out to be 15 min. Further, the “Concentration of the peptide resulting in a synergistic effect” value in the assay with P. aeruginosa ATCC 27853 [11] is on record as 0.25 (3.75 μM).
